Patent publication US10072003B2, “Tetrahydronaphthyridine derivatives as mGluR2-negative allosteric modulators, compositions, and their use” (Merck Sharp & Dohme Corp., priority 2014, dated 2018)

Biological target: recombinant human mGluR2 (Homo sapiens (Human), UniProt Q14416)
Assay: FLIPR Ca2+ mobilization antagonist assay in CHO dhfr- cells expressing human mGluR2 and Gα16
Assay type: cell-based
Conditions: antagonist response after addition of 2,500 nM glutamate, Fluo-4 AM, FLIPR384
Description: Antagonist constants are determined as follows. The compounds of the invention were tested in a fluorescence laser imaging plate reader based assay. This assay is a common functional assay to monitor Ca2+ mobilization in whole cells expressing recombinant receptor coupled with a promiscuous G-protein. CHO dhfr-cells stably expressing recombinant human mGluR2 and Gα16 loaded with Fluo-4 AM (Invitrogen, Carlsbad Calif.) were treated with various concentrations of antagonists of compounds and the Ca2+ response was monitored on a FLIPR384 (Molecular Devices, Sunnydale Calif.) for agonist activity. Then 2,500 nM glutamate was added and the antagonist response was monitored. The maximum calcium response at each concentration of compound for agonist or antagonist were plotted as dose responses and the curves were fitted with a four parameter logistic equation giving IC50 and Hill coefficient using the iterative non linear curve fitting software ADA (Merck & Co). Data in the following table represent activities in the antagonist assay.

Sequence of recombinant human mGluR2 (Q14416 19-872): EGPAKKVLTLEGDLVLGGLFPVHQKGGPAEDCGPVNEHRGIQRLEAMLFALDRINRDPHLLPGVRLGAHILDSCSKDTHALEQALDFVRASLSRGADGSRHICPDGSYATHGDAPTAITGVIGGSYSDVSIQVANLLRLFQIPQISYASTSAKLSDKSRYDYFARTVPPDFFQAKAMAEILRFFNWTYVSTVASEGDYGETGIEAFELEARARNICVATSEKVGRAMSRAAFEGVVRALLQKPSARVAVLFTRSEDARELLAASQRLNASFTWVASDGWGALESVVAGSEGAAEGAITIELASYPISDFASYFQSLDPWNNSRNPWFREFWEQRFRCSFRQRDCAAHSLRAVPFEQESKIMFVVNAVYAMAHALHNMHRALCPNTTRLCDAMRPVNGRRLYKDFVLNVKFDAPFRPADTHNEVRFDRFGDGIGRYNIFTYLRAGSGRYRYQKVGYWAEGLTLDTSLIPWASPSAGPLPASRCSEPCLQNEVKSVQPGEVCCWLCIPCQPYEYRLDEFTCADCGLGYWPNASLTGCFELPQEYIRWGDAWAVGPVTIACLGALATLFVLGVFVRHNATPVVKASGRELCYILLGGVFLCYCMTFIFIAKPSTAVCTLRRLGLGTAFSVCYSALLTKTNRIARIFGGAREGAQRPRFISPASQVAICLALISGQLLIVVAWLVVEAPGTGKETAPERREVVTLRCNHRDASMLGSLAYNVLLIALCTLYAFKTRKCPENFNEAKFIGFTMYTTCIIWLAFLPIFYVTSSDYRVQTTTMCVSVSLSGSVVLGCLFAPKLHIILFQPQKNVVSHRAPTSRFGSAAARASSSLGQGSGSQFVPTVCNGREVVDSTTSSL

SMILES	IC50
NC(=O)c1cc(N2CCCC(F)C2)c2c(n1)CN(Cc1ccnc(C(F)(F)F)c1)CC2 (single isomer, unassigned) [Example 5-6B, (R) or (S)-4-(3-fluoropiperidin-1-yl)-7-((2-(trifluoromethyl)pyridin-4-yl)methyl)-5,6,7,8-tetrahydro-1,7-naphthyridine-2-carboxamide]	17.3 nM
CN1CCN(c2cc(C(N)=O)nc3c2CCN(Cc2ccnc(C(F)(F)F)c2)C3)CC1C(F)(F)F (single isomer, unassigned) [Example 5-9, (S) or (R)-4-(4-methyl-3-(trifluoromethyl)piperazin-1-yl-7-((2-(trifluoromethyl)pyridin-4-yl)methyl)-5,6,7,8-tetrahydro-1,7-naphthyridine-2-carboxamide]	92.7 nM
CC(c1cnnn1C)N1CCc2c(-c3ccc(F)cc3F)cc(C(N)=O)nc2C1 (single isomer, unassigned) [Example 7-1, (S) or (R)-4-(2,4-difluorophenyl)-7-(1-(1-methyl-1H-1,2,3-triazol-5-yl)ethyl)-5,6,7,8-tetrahydro-1,7-naphthyridine-2-carboxamide]	37.4 nM
CC(c1cnnn1C)N1CCc2c(-c3ccc(F)cc3F)cc(C(N)=O)nc2C1 (single isomer, unassigned) [Example 7-2, (R) or (S)-4-(2,4-difluorophenyl)-7-[(1R)-1-(1-methyl-1H-1,2,3-triazol-5-yl)ethyl]-5,6,7,8-tetrahydro-1,7-naphthyridine-2-carboxamide]	45.9 nM
CC(c1ccnc(C(F)(F)F)c1)N1CCc2c(-c3cnn(C(F)F)c3)cc(C(N)=O)nc2C1 (single isomer, unassigned) [Example 7-3A, (S) or (R)-4-[1-(difluoromethyl)-1H-pyrazol-4-yl]-7-{(1R)-1-[2-(trifluoromethyl)pyridin-4-yl]ethyl}-5,6,7,8-tetrahydro-1,7-naphthyridine-2-carboxamide]	29.3 nM
CC(c1ccnc(C(F)(F)F)c1)N1CCc2c(-c3cnn(C(F)F)c3)cc(C(N)=O)nc2C1 (single isomer, unassigned) [Example 7-3B, (R) or (S)-4-[1-(difluoromethyl)-1H-pyrazol-4-yl]-7-{(1S)-1-[2-(trifluoromethyl)pyridin-4-yl]ethyl}-5,6,7,8-tetrahydro-1,7-naphthyridine-2-carboxamide]	21.2 nM
CC(c1ccnn1C)N1CCc2c(-c3ccc(F)cc3F)cc(C(N)=O)nc2C1 (single isomer, unassigned) [Example 7-4, (S) or (R)-4-(2,4-difluorophenyl)-7-[(1S)-1-(1-methyl-1H-pyrazol-5-yl)ethyl]-5,6,7,8-tetrahydro-1,7-naphthyridine-2-carboxamide]	20.1 nM
NC(=O)c1cc(-c2ccc(F)cc2F)c2c(n1)CN(CC(O)c1ccccc1)CC2 (single isomer, unassigned) [Example 8-3A, (S) or (R)-4-(2,4-difluorophenyl)-7-[(2S or 2R)-2-hydroxy-2-phenylethyl]-5,6,7,8-tetrahydro-1,7-naphthyridine-2-carboxamide]	18.5 nM
NC(=O)c1cc(-c2ccc(F)cc2F)c2c(n1)CN(CC(O)c1ccccc1)CC2 (single isomer, unassigned) [Example 8-3B, (R) or (S)-4-(2,4-difluorophenyl)-7-[(2R or 2S)-2-hydroxy-2-phenylethyl]-5,6,7,8-tetrahydro-1,7-naphthyridine-2-carboxamide]	12.7 nM
CC1(C)CC(F)(CN2CCc3c(-c4ccc(F)cc4F)cc(C(N)=O)nc3C2)CO1 (single isomer, unassigned) [Example 14-1A]	17.4 nM
CC1(C)CC(F)(CN2CCc3c(-c4ccc(F)cc4F)cc(C(N)=O)nc3C2)CO1 (single isomer, unassigned) [Example 14-1B]	17.8 nM
CC1(C)CC(O)(CN2CCc3c(-c4ccc(F)cc4F)cc(C(N)=O)nc3C2)CCO1 (single isomer, unassigned) [Example 14-2A]	31.7 nM
CC1(C)CC(O)(CN2CCc3c(-c4ccc(F)cc4F)cc(C(N)=O)nc3C2)CCO1 (single isomer, unassigned) [Example 14-2B]	27.1 nM
CC1(C)CC(O)(CN2CCc3c(-c4ccc(F)cc4F)cc(C(N)=O)nc3C2(C)C)CO1 (single isomer, unassigned) [Example 15-1A]	24.9 nM
CC1(C)CC(O)(CN2CCc3c(-c4ccc(F)cc4F)cc(C(N)=O)nc3C2(C)C)CO1 (single isomer, unassigned) [Example 15-1B]	23.6 nM
NC(=O)c1cc(-c2ccc(F)cc2)c2c(n1)CN(C[C@H]1CCN[C@@H](C(F)(F)F)C1)CC2 [Example 1-1A, 4-(4-fluorophenyl)-7-(((2R,4S)-2-(trifluoromethyl)piperidin-4-yl)methyl)-5,6,7,8-tetrahydro-1,7-naphthyridine-2-carboxamide]	98.2 nM

SMILES	IC50
NC(=O)c1cc(-c2ccc(F)cc2)c2c(n1)CN(C[C@@H]1CCN[C@H](C(F)(F)F)C1)CC2 [Example 1-1B, 4-(4-fluorophenyl)-7-(((2S,4R)-2-(trifluoromethyl)piperidin-4-yl)methyl)-5,6,7,8-tetrahydro-1,7-naphthyridine-2-carboxamide]	98.2 nM
NC(=O)c1cc(-c2ccc(F)cc2)c2c(n1)CN(C[C@@H]1CCO[C@H](C3CC3)C1)CC2 [Example 1-2A, 7-(((2S,4R)-2-cyclopropyltetrahydro-2H-pyran-4-yl)methyl)-4-(4-fluorophenyl)-5,6,7,8-tetrahydro-1,7-naphthyridine-2-carboxamide]	129 nM
NC(=O)c1cc(-c2ccc(F)cc2)c2c(n1)CN(C[C@H]1CCO[C@@H](C3CC3)C1)CC2 [Example 1-2B, 7-(((2R,4S)-2-cyclopropyltetrahydro-2H-pyran-4-yl)methyl)-4-(4-fluorophenyl)-5,6,7,8-tetrahydro-1,7-naphthyridine-2-carboxamide]	129 nM
CC(C)(C)[C@@H]1C[C@H](CN2CCc3c(-c4ccc(F)cc4)cc(C(N)=O)nc3C2)CCO1 [Example 1-3A, 7-(((2S,4R)-2-(tert-butyl)tetrahydro-2H-pyran-4-yl)methyl)-4-(4-fluorophenyl)-5,6,7,8-tetrahydro-1,7-naphthyridine-2-carboxamide]	132 nM
CC(C)(C)[C@H]1C[C@@H](CN2CCc3c(-c4ccc(F)cc4)cc(C(N)=O)nc3C2)CCO1 [Example 1-3B, 7-(((2R,4S)-2-(tert-butyl)tetrahydro-2H-pyran-4-yl)methyl)-4-(4-fluorophenyl)-5,6,7,8-tetrahydro-1,7-naphthyridine-2-carboxamide]	179 nM
NC(=O)c1cc(-c2ccc(F)cc2)c2c(n1)CN(CCc1cccnc1N)CC2 [Example 1-4, 7-(2-(2-aminopyridin-3-yl)ethyl)-4-(4-fluorophenyl)-5,6,7,8-tetrahydro-1,7-naphthyridine-2-carboxamide]	83.5 nM
Cn1nccc1CN1CCc2c(-c3ccc(F)cc3F)cc(C(N)=O)nc2C1 [Example 1-6, 4-(2,4-difluorophenyl)-7-[(1-methyl-1H-pyrazol-5-yl)methyl]-5,6,7,8-tetrahydro-1,7-naphthyridine-2-carboxamide]	14.5 nM
Cc1cc(CN2CCc3c(-c4ccc(F)cc4F)cc(C(N)=O)nc3C2)n(C)n1 [Example 1-7, 4-(2,4-difluorophenyl)-7-[(1,3-dimethyl-1H-pyrazol-5-yl)methyl]-5,6,7,8-tetrahydro-1,7-naphthyridine-2-carboxamide]	13.8 nM
Cn1nccc1CN1CCc2c(-c3ccc(Cl)cc3F)cc(C(N)=O)nc2C1 [Example 1-8, 4-(4-chloro-2-fluorophenyl)-7-[(1-methyl-1H-pyrazol-5-yl)methyl]-5,6,7,8-tetrahydro-1,7-naphthyridine-2-carboxamide]	8.7 nM
CC(C)n1nccc1CN1CCc2c(-c3ccc(F)cc3F)cc(C(N)=O)nc2C1 [Example 1-9, 4-(2,4-difluorophenyl)-7-{[1-(1-methylethyl)-1H-pyrazol-5-yl]methyl}-5,6,7,8-tetrahydro-1,7-naphthyridine-2-carboxamide]	8.2 nM
Cc1cnn(C)c1CN1CCc2c(-c3ccc(F)cc3F)cc(C(N)=O)nc2C1 [Example 1-10, 4-(2,4-difluorophenyl)-7-[(1,4-dimethyl-1H-pyrazol-5-yl)methyl]-5,6,7,8-tetrahydro-1,7-naphthyridine-2-carboxamide]	21.8 nM
Cc1ccc(-c2cc(C(N)=O)nc3c2CCN(Cc2ccnn2C(C)C)C3)c(F)c1 [Example 1-12, 4-(2-fluoro-4-methylphenyl)-7-{[1-(1-methylethyl)-1H-pyrazol-5-yl]methyl}-5,6,7,8-tetrahydro-1,7-naphthyridine-2-carboxamide]	9.9 nM
CC(C)(C)n1nccc1CN1CCc2c(-c3ccncc3)cc(C(N)=O)nc2C1 [Example 1-13, 7-[(1-tert-butyl-1H-pyrazol-5-yl)methyl]-4-pyridin-4-yl-5,6,7,8-tetrahydro-1,7-naphthyridine-2-carboxamide]	84.1 nM
Cn1cncc1CN1CCc2c(-c3ccc(Cl)cc3F)cc(C(N)=O)nc2C1 [Example 1-16, 4-(4-chloro-2-fluorophenyl)-7-[(1-methyl-1H-imidazol-5-yl)methyl]-5,6,7,8-tetrahydro-1,7-naphthyridine-2-carboxamide]	14.1 nM
CC(C)(C)n1nncc1CN1CCc2c(-c3c(F)cc(Cl)cc3F)cc(C(N)=O)nc2C1 [Example 1-17, 7-[(1-tert-butyl-1H-1,2,3-triazol-5-yl)methyl]-4-(4-chloro-2,6-difluorophenyl)-5,6,7,8-tetrahydro-1,7-naphthyridine-2-carboxamide]	7.4 nM
